In patent US20250276994A1, “CAP ANALOG FOR THE 5'-END OF EUKARYOTIC MESSENGER RNAS” (WESTFÄLISCHE WILHELMS-UNIVERSITÄT, priority 2021, published 2025):

Key:
[1] = Irradiation of photocleavable 5′-cap analogs, LC-MS (triple quad); format: physicochemical; conditions: 30 seconds, 365 nm (3 W)
Experimental: For determination of mass spectra, HPLC—triple-quadrupole mass spectrometry system was used. The system consists of Agilent 1260 Infinity II with dual λ absorbance detector (G7114A) HPLC part and Agilent Ultivo mass spectrometer with JetStream ion source (type of ESI). Column which was used: Agilent Poroshell 120 EC-C18 (3.0×150/2.7 μm). The polar compounds were tested by LC method (eluent 20 mM NH40Ac buffer (pH=6)/CH3CN, gradient 0-30%, column temperature=20° C.).
Samples of the photocleavable 5′-cap analog of formula (22) were irradiated for 30 seconds with 365 nm (3 W).

Reticulocyte Lysate = test: In vitro translation of capped FLuc-mRNA and luminescence measurement; format: biochemical; conditions: 30 seconds at 365 nm
Experimental: In vitro translation was performed using a eukaryotic cell free protein expression kit from Reticulocyte Lysate (Invitrogen). Experiments were performed in 12.5 μL total volume containing 20 ng of the corresponding FLuc-mRNAs, 50 μM L-methionine and 150 mM potassium acetate. Samples were mixed with 8.5 μL of the reticulocyte lysate and incubated for 90 min at 30° C. Afterwards, 2 μL of the respective translation mix were used in subsequent luminescence measurement. The translation efficiency of the reporter mRNAs was assessed in a luciferase assay using Beetle-juice Luciferase Assay Firefly (pjk). Luciferase activity was determined by adding 50 μL freshly prepared substrate solution to the translation mixture. Luminescence was monitored using a Tecan Infinite® m1000pro microplate reader with an acquisition time of 3 s (duration of signal acquisition).
The photocleavable 5′-cap analog of formula (7) was used for in vitro transcription to make FLuc mRNA as described above. This was used for in vitro translation and Luminescence measurement as described above. The commercial non-modified cap analog denoted “m^7GpppG” (Jena Bioscience) was used as positive control. Samples were irradiated for 30 seconds. The ApppG capped mRNA, which is not recognized by the translation initiation factor served as negative control, which is substracted from the other samples as it represents background activity. The experiment was performed in quadruplicates. The FLuc-mRNA capped with the photocleavable 5′-cap analog of formula (7) is denoted “ONB”.
The in vitro translation assay and luminescence measurement was performed as described above using the photocleavable 5′-cap analog of formula (12). The capped mRNA was denoted “DMNB-m^7GpCH2ppG capped FLuc-mRNA”. Samples were irradiated for 30 seconds (365 nm) or 60 seconds (405 nm). The commercial non-modified cap analog denoted “m^7GpppG” (Jena Bioscience) was used as positive control and all other samples were normalized to it. The ApppG capped mRNA, which is not recognized by the translation initiation factor served as negative control, which is substracted from the other samples as it represents background activity. The experiment was performed in triplicates, except *DMNB-m7GpCH2ppG (365 nm) which was a single determination.
The in vitro translation assay in reticulocyte lysate and luminescence measurement was performed as described above using m^7GpppG capped FLuc-mRNA caged with the photocleavable 5′-cap analog of formulas (22) and (25) (denoted “DMNB m^7GpppG” and “NPOM m^7GpppG”). Samples were irradiated for 30 seconds at 365 nm. The ApppG capped mRNA, which is not recognized by the translation initiation factor served as negative control, which was substracted from the other samples as it represents background activity. The values were normalized to the non-irradiated sample with m^7GpppG capped mRNA (100%). The experiment was performed in triplicates.
The in vitro translation assay in reticulocyte lysate and luminescence measurement was performed as described above using m^7GpppG capped FLuc-mRNA with modified nucleotides m^5C and N^1methyl-pseudouridine caged with the photocleavable 5′-cap analog of formulas (22) and (25) (denoted “DMNB m^7GpppG mod” and “NPOM m^7GpppG mod”). Samples were irradiated for 30 seconds at 365 nm. The ApppG capped mRNA, which is not recognized by the translation initiation factor served as negative control, which was substracted from the other samples as it represents background activity. The values were normalized to the non-irradiated sample with m^7GpppG capped mRNA (100%). The experiment was performed in triplicates.

HeLa cells = test: Translation and irradiation in HeLa cells of capped GLuc-mRNA (luminescence); format: cell-based; conditions: HeLa; GLuc-mRNA with regular or modified nucleotides; 30 seconds (365 nm)
Experimental: HeLa cells were transferred to a 96 well plate 20 h prior transfection. 30.000 cells/well were cultivated in growth Media (MEM, 10% FCS, 1% glutamine, 1% Penicillin, 1% Streptomycine, […] non-essential aminoacids). For transfection the growth media was exchanged for MEM-media with 0.6 μL Metafectene® Pro (0.3 μL) and 100 ng mRNA was added per well. 6 h after transfection of the cells the media was exchange by MEM-media, followed by irradiation and another MEM-media exchange. After 24 h post transfection the supernatant in the wells was used for further luminescence measurements. Values of the ApppG capped mRNA represent cap independent translation and were therefore subtracted from the other values.
In cell translation and irradiation in cell culture of mammalian HeLa cells was performed as described above. GLuc mRNA capped with the photocleavable 5′-cap analog of formula (12) (“DMNB”) was used and the commercial non-modified cap analog denoted “m^7GpppG” (Jena Bioscience) was used as a control. HeLa cells were either transfected with the DMNB-m^7GpCH2ppG capped mRNA (irradiated and non-irradiated before transfection) or with the natural capped mRNA (irradiated and non-irradiated before transfection). Irradiation of the mRNA containing the natural cap was performed (5 V, 600 mA) with 365 nm for 30 seconds to evaluate the resulting influence on translational efficiency. DMNB-m^7GpCH2ppG capped mRNA was irradiated in the same way or with 405 nm for 60 seconds. The ApppG capped mRNA, which is not recognized by the translation initiation factor served as negative control, which is substracted from the other samples as it represents background activity. The values were normalized to the non-irradiated m^7GpppG capped sample (100%). The experiment was performed in triplicates.
The luminescence measurement of cell culture media after translation in cells transfected with modified and non-modified GLuc mRNA was repeated using irradiation with 365 nm/405 nm for different periods of time. HeLa cells were either transfected with the GLuc mRNA capped with the photocleavable 5′-cap analog of formula (12) denoted “DMNB-m^7GpCH2ppG capped mRNA” or with the natural m^7GpppG capped mRNA. Cells transfected with the natural capped mRNA were irradiated (5 V, 600 mA) with 365 nm/405 nm for 30 s or 60 s to evaluate the resulting influence on translational efficiency. Cells transfected with DMNB-m^7GpCH2ppG capped mRNA were irradiated in the same way. The ApppG capped mRNA, which is not recognized by the translation initiation factor served as negative control, which is substracted from the other samples as it represents background activity. The values were normalized to the non-irradiated cells with m^7GpppG capped mRNA (100%). The experiment was performed in triplicates.
Luminescence measurement of cell culture media after translation of transfected modified and non-modified GLuc mRNA in cells. HeLa cells were either transfected with the NPOM-m^7GpCH2ppG capped mRNA or with the natural m^7GpppG capped mRNA. Cells transfected with the natural capped mRNA were irradiated (5 V, 600 mA) with 365 nm/405 nm for different periods of time to evaluate the resulting influence on translational efficiency. Cells transfected with NPOM-m^7GpCH2ppG capped mRNA were irradiated in the same way. The ApppG capped mRNA, which is not recognized by the translation initiation factor served as negative control, which is substracted from the other samples as it represents background activity. […]

HEK293T cells = test: In cell translation assay in HEK293T cells of capped GLuc-mRNA (luminescence); format: cell-based; conditions: GLuc-mRNA with regular or modified nucleotides, 30 seconds (365 nm)
Text: In cell translation assay in HeLa and HEK293T cells with m^7GpppG capped GLuc-mRNA caged with the photocleavable 5′-cap analog of formula (22) (denoted “DMNB m^7GpppG”) with either A) regular nucleotides or B) modified nucleotides m^5C and N^1methyl-pseudouridine. Samples were irradiated for 30 seconds (365 nm). The ApppG capped mRNA, which is not recognized by the translation initiation factor served as negative control, which is substracted from the other samples as it represents background activity. The values were normalized to the non-irradiated sample with m^7GpppG capped mRNA (100%). The experiment was performed in triplicates.

[2] = Irradiation of caged nucleosides, conversion estimated by HPLC; format: physicochemical; conditions: 500 μM in water/acetone/acetonitrile; 405 nm 20-60 s or 365 nm 5-20 s; LED 3 W
Experimental: Conversions from caged compounds to uncaged compounds were estimated by integrating the peaks of a UV-spectrum that resulted from the HPLC analysis (Agilent infinity 1260).
When irradiating isolated N2-modified compounds, a final volume of 10 μL in double distilled water was irradiated using a LED (λmax=365 nm/405 nm/420 nm) and then analyzed by RP-HPLC.
A 500 μM solution of the compound 15, nitropiperonylmethyl fused via a carbamate moiety to guanosine (denoted “NPOM guanosine” or “caged guanosine”), in water/acetone/acetonitrile was irradiated in a 10 μL volume with either 405 nm for 20 s, 40 s or 60 s or with 365 nm for 5 s, 10 s or 20 s, respectively, using a LED power (input 3W and output 147 mW/cm^2). HPLC analysis was performed as described above.
Samples of the adenosine fused via a carbamate moiety to 7-(diethylamino)-4-(hydroxymethyl)-coumarin (DEACM) were irradiated with 450 nm. […] The peak at 21.1 min corresponds to the obtained compound and the peaks at 11.1 and 21.9 min correspond to the photo-cleavage products adenosine and DEACM-OH, respectively.

[3] = Stability of the carbamate linkage in water and HeLa cell lysate (HPLC); format: in vitro ADME; conditions: water or HeLa cell lysate, 24 h incubation at 37° C.
Experimental: To investigate the stability of the carbamate linker in cellular environment the compound 15, nitropiperonylmethyl fused via a carbamate moiety to guanosine, was studied in water and cell lysate. The cell lysate was produced by ultrasonication of HeLa cells (5*10^6 cells) in 400 μL 1×PBS buffer. The compound 15, NPOM-guanosine, suspended in water or cell lysate after 24 h incubation at 37° C. was analysed by HPLC-analysis as described above.
As can be taken from the FIG. 8, the compound 15 was stable under these conditions.

| Compound | uncaging of the cap after irradiation (LC-MS) [1] | in vitro translation (luminescence) after irradiation (Reticulocyte Lysate; capped FLuc-mRNA with modified nucleotides m^5C and N^1methyl-pseudouridine) | in vitro translation (luminescence) after irradiation (Reticulocyte Lysate; capped FLuc-mRNA, regular nucleotides) | translation in cells (luminescence) after irradiation (HeLa cells) | translation in cells (luminescence) after irradiation (HEK293T cells) | conversion of caged guanosine to guanosine upon irradiation [2] | stability (HPLC) [3] |
| --- | --- | --- | --- | --- | --- | --- | --- |
| COc1cc(COC(=O)Nc2nc3c(c(=O)[nH]2)[n+](C)cn3[C@@H]2O[C@H](COP(=O)(O)OP(=O)(O)OP(=O)(O)OC[C@H]3O[C@@H](n4cnc5c(=O)[nH]c(N)nc54)C(O)C3O)C(O)C2O)c([N+](=O)[O-])cc1OC (stereo partly shown) [compound 22, P1-(N^2-(4,5-Dimethoxy-2-nitrobenzyl)oxycarbonyl-7-methylguanosin-5′-yl)-P3-guanosin-5′-yl triphosphate] | partially uncaged | marked increase of translation | marked increase of translation | marked increase of translation | marked increase of translation |  |  |
| CC(OC(=O)Nc1nc2c(ncn2[C@@H]2O[C@H](CO)[C@@H](O)[C@H]2O)c(=O)[nH]1)c1cc2c(cc1[N+](=O)[O-])OCO2 (stereo partly shown) [compound 15, N^2-(1-(6-nitrobenzo[d][1,3]dioxol-5-yl)ethyl)oxycarbonylguanosine] |  |  |  |  |  | cleaved by irradiation and that guanosine is regained without side products | stable |
